Results: the NIST ThermoML archive (doi:10.1016/j.jct.2015.12.029)

Assay: mn = molality of the nth substance listed, in mol/kg
Conditions: 100 kPa, Liquid; for molar conductivity: Alternating current cell with electrodes; for mass density: Vibrating tube method, m1 = 0.009007

CCCCn1cc[n+](C)c1.F[B-](F)(F)F [1-butyl-3-methylimidazolium tetrafluoroborate] + CCCCO
molar conductivity [S·m2/mol]
Conditions	283.15 K	288.15 K	293.15 K	298.15 K	303.15 K	308.15 K	313.15 K	318.15 K
m1 = 7.252e-05	0.00118	0.00135	0.00154	0.00177	0.00199	0.00224	0.0025	0.00278
m1 = 0.0001049	0.00114	0.0013	0.00148	0.00169	0.00191	0.00214	0.00238	0.00264
m1 = 0.0001948	0.00103	0.00118	0.00135	0.00154	0.00173	0.00193	0.00214	0.00237
m1 = 0.0002951	0.000958	0.00109	0.00125	0.00142	0.00158	0.00177	0.00197	0.00217
m1 = 0.0004065	0.000896	0.00102	0.00116	0.00132	0.00147	0.00164	0.00182	0.00201
m1 = 0.000564	0.000826	0.000939	0.00107	0.00121	0.00135	0.00151	0.00168	0.00184
m1 = 0.000759	0.000763	0.000869	0.000986	0.00112	0.00125	0.00139	0.00154	0.00169
m1 = 0.0009843	0.000711	0.000808	0.000917	0.00104	0.00116	0.00129	0.00143	0.00156
m1 = 0.001432	0.000635	0.000719	0.000816	0.000925	0.00103	0.00114	0.00126	0.00138
m1 = 0.001963	0.000573	0.000648	0.000736	0.000834	0.00093	0.00103	0.00114	0.00125
m1 = 0.003008	0.000498	0.000562	0.000639	0.00072	0.000807	0.000896	0.00099	0.00108

Conditions	mass density [kg/m3]
283.15 K	817.699
288.15 K	813.937
293.15 K	810.147
298.15 K	806.337
303.15 K	802.5
308.15 K	798.633
313.15 K	794.73
318.15 K	790.785
